Results as given in US20250179028A1, “ACRYLAMIDE COMPOUNDS” (NRG THERAPEUTICS LTD, priority 2022, published 2025).
≈ marks a conversion by molar mass, not a printed value. Like-named read-outs stand apart in the source and are kept apart here.

Assays:
mPTP [1] = experiment: mPTP activity (Ca2+ retention) assay in isolated rat liver mitochondria; type: biochemical; details: for mPTP Rat liver pIC50: isolated rat liver mitochondria, average value from multiple experiments (n ≥ 2)
Summary of the method: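 Freshly isolated female Sprague Dawley rat liver mitochondria were energised with succinate and rotenone in pH 7.4 buffer with Fluo5N, then pre-incubated 10 min at RT with compound (30 μM to 1 nM final) before a 75 μM CaCl2 bolus. The IC50 used 10-min fluorescence, normalised to DMSO and 5 μM cyclosporin A.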

mPTP [2] = experiment: mPTP activity assay in isolated rat brain mitochondria; type: biochemical; details: for mPTP Rat brain pIC50: isolated rat brain mitochondria
Experimental: mPTP activity was measured in brain mitochondria freshly isolated from female Sprague Dawley (250 to 300 gram) rats. Anaesthetised rats were perfused in-situ with ˜40 ml cold Dulbecco's Phosphate Buffered Saline (DPBS), then brains dissected and transferred into 30 ml Isolation Buffer (225 mM mannitol, 75 mM sucrose, 1 mM EGTA, adjusted to pH 7.4 with 1 M NaOH). The brain was minced using tweezers and a scalpel into ˜5 mm pieces then transferred into a 50 ml Potterton Dounce homogenization tube on ice containing 10 ml ice-cold isolation buffer (as above with addition of Complete Protease inhibitor; 1 tablet per 50 ml buffer).
Homogenisation was carried out using a […] pestle at 1800 rpm. The slurry was centrifuged at 2000 g for 10 min at 4° C., then the supernatant centrifuged at 12,000 g for 9 min. The pellet was resuspended with a dounce homogeniser in isolation buffer as above but with the addition of 0.02% digitonin, centrifuged at 12,000 g for 11 min and finally resuspended in 5 ml modified isolation buffer (as above but with EGTA reduced to 0.1 mM).
Test compounds were prepared in 384 well polypropylene assay plates as described above for the liver mitochondria assay. A stock mitochondria/Fluo5N assay solution was prepared in 5.6 ml assay buffer (120 mM mannitol, 40 mM MOPS, 5 mM KH2PO4, 60 mM KCl, 10 mM pyruvate, 2 mM malate, 2 mM MgCl2, 20 μM ADP, 1.26 μM oligomycin A, adjusted to pH 7.4) supplemented with Fluo5N pentapotassium salt (2 μM) and 1 ml mitochondria suspension, then transferred (15 μl) into the assay plate containing test compounds and incubated for 10 min at RT. Assay plates were then transferred to a FLIPR Tetra plate reader (Molecular Devices). Dye fluorescence was then measured every 3 sec for a total of 10 min. After 12 sec, a 2.5 μl bolus of Ca2+ (75 μM) was added from a source plate containing 675 μM CaCl2) in FLIPR assay buffer. IC50 values for test compounds were calculated using the fluorescence value collected at the 10 min timepoint with % inhibition calculated using the DMSO control and cyclosporin A values at […].

[3] = PBS and FaSSIF solubility; type: physicochemical; details: kinetic from dmso stock
Experimental: Test compounds were prepared as 10 mM stocks in DMSO and 15 μl samples transferred in duplicate into 1.5 mL glass flat bottom vials (BioTech Solutions). Fasted state simulated intestinal fluid (FaSSIF) or PBS (pH 7.4) was added to each vial to final volume of 500 μl. One PTFE encapsulated stir stick (V&P Scientific) was placed in each vial before sealing with PTFE/SIL plugs (BioTech Solutions). Vials were shaken at 1100 rpm for 2 hr at 25° C. Samples were then filtered through MultiScreen Solvinert filter plates (Millipore) via vacuum filtration. Aliquots of filtrate (5 μl) plus 5 μl DMSO were diluted in 490 μl 50% acetonitrile in water containing internal standard. The filtrate was analysed and quantified against a standard of known concentration using LC-MS/MS. Solubility values of the test compound and control compound were calculated as follows: […]

[4] = Hepatocyte clearance assay, rat; type: in vitro ADME; details: cryopreserved primary rat hepatocytes, average value from two experiments, read-out: Rat heps Clint
Experimental: (§1) In vitro clearance studies were performed in primary rat and human hepatocytes (BiolVT). Vials of cryopreserved rat or human hepatocytes were thawed in a 37° C. water bath for 2 min. Cells were transferred into thawing medium (Williams' Medium E containing 30% Percoll, 1×GlutaMAX-1, 15 mM HEPES, 5% fetal bovine serum (FBS), 4 μg/ml insulin, 1 μM dexamethasone), centrifuged at 100 g for 10 min then resuspended in culture medium (Leibovitz's L-15 Medium) at a concentration of 0.5×10^6 viable cells/mL (number of viable cells assessed using AO/PI staining). Hepatocytes (198 μL) were transferred into wells of a 96-well non-coated plate and placed in a 37° C. incubator for 10 min. Test compound solutions were prepared from 10 mM stocks in DMSO, diluted to 100 μM in 50% (v/v in water) acetonitrile. Test compound samples (2 μl) were added to each well of hepatocytes and incubated at 37° C. Samples (25 μl) were collected at t=0, 15, 30, […] and 120 min, mixed with 6 volumes (150 μl) of acetonitrile containing internal standard (100 nM alprazolam, 200 nM caffeine and 100 nM tolbutamide), vortexed for 5 min and centrifuged for 45 min at 3220 g. An aliquot of supernatant (100 μL) was diluted with 100 μL ultra-pure water, and the mixture was used for LC/MS/MS analysis. All incubations were performed in duplicate. Peak areas were determined from extracted ion chromatograms. The slope value, k, was determined by linear regression of the natural logarithm of the remaining percentage of the parent drug vs. incubation time curve. The in vitro half-life (in vitro t½) was determined from the slope value: in vitro t½=0.693/k. Conversion of the in vitro t½ (in min) into the in vitro intrinsic clearance (in vitro CLint, in μL/min/1×10^6 cells) was done using the following equation (mean of duplicate determinations):
(§2) [formula] • V=incubation volume (0.2 mL) • N=number of hepatocytes per well (0.1×10^6 cells).

[5] = Hepatocyte clearance assay, human; type: in vitro ADME; details: cryopreserved primary human hepatocytes, average value from two experiments, read-out: Human heps Clint
Experimental: as §1, §2

CYP2D6 = CYP2D6 (Homo sapiens (Human), UniProt P10635); experiment: Cytochrome P450 CYP2D6 inhibition in human liver microsomes; type: in vitro ADME; details: probe dextromethorphan 2 µM (dextrorphan formation); 1 uM test compound, human liver microsomes; average value from two experiments; negative values = no effective inhibition
Chain of CYP2D6 (P10635 whole entry): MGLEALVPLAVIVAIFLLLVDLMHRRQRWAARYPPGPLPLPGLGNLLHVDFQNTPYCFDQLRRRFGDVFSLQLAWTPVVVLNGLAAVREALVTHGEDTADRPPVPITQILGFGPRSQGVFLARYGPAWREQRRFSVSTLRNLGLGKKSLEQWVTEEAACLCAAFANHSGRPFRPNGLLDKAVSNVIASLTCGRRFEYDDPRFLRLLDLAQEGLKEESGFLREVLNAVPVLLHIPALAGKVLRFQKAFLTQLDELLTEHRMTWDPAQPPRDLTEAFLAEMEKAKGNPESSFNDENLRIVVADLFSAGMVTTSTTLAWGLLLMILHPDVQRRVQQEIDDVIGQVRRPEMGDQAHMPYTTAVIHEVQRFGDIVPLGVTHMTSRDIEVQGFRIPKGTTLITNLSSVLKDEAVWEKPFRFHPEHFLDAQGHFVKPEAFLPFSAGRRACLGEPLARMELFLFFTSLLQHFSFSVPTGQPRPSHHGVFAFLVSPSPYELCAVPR
Summary of the method: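 Human liver microsomes (0.2 mg/mL) with 2 μM dextromethorphan in 100 mM PBS, test compound at 1 μM or 0.1-30 μM, 15 min preincubation then NADPH-started reaction for 20 min at 37° C, in duplicate. Dextrorphan formation by UPLC-MS/MS; IC50 from % decrease versus uninhibited control.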

[6] = fasted state simulated intestinal fluid (FaSSIF), fassif, Fasted state simulated intestinal fluid, 2 hr at 25° C., read-out: Solubility FaSSIF

Compound	mPTP Rat liver pIC50 (mPTP [1])	mPTP Rat brain pIC50 (mPTP [2])	solubility at 2 h [3, 6] [µM]	activity in the rat liver mitochondria assay (in words) (mPTP [1])	activity in the rat brain mitochondria assay (in words) (mPTP [2])	hepatocyte CLint at 1 µM [4] [µL/min/1e6 cells]	hepatocyte CLint at 1 µM [5] [µL/min/1e6 cells]	inhibition at 20 min, 1 µM (CYP2D6) [%]	solubility at 2 h ([3]; aqueous buffer, PBS pH 7.4, 2 hr at 25° C., read-out: Solubility PBS (pH 7.4)) [µM]
Cc1ccnc(C)c1NC(=O)/C=C/c1ccc2c(C)n[nH]c2c1 [Example 116, (2E)-N-(2,4-dimethylpyridin-3-yl)-3-(3-methyl-1H-indazol-6-yl)prop-2-enamide]	6.5	6.2							
Cc1ncc(F)c(C)c1NC(=O)/C=C/c1cc2[nH]nc(C)c2cc1F [Example 107, (2E)-N-(5-fluoro-2,4-dimethylpyridin-3-yl)-3-(5-fluoro-3-methyl-1H-indazol-6-yl)prop-2-enamide]	8.1	8.0							
COc1cc(C)c(NC(=O)/C=C/c2ccc3c(C)n[nH]c3c2)c(C)n1 [Example 91, (2E)-N-(6-methoxy-2,4-dimethylpyridin-3-yl)-3-(3-methyl-1H-indazol-6-yl)prop-2-enamide]	6.2	7.2	86 (≈ 28.9 µg/mL)						
COc1cc(C)c(NC(=O)/C=C/c2ccc3c(F)n[nH]c3c2)c(C)n1 [Example 93, (2E)-3-(3-fluoro-1H-indazol-6-yl)-N-(6-methoxy-2,4-dimethylpyridin-3-yl) prop-2-enamide]	7.6	6.8	151 (≈ 51.4 µg/mL)						
Cc1ncc(F)c(C)c1NC(=O)/C=C/c1ccc2c(Cl)n[nH]c2c1 [Example 112, (2E)-3-(3-chloro-1H-indazol-6-yl)-N-(5-fluoro-2,4-dimethylpyridin-3-yl)prop-2-enamide]	8.2	8.2							
Cc1ncccc1NC(=O)/C=C/c1ccc2c(C)n[nH]c2c1 [Example 115, (2E)-3-(3-methyl-1H-indazol-6-yl)-N-(2-methylpyridin-3-yl)prop-2-enamide]	6.2	5.7							
Cc1c(F)cccc1NC(=O)/C=C/c1ccc2c(C#N)n[nH]c2c1 [Example 51, (E)-3-(3-cyano-1H-indazol-6-yl)-N-(3-fluoro-2-methylphenyl)acrylamide]	7.9	8.3		highest activity	highest activity	48.1	11		
COc1cc(C)c(NC(=O)/C=C/c2ccc3c(C#N)n[nH]c3c2)c(C)n1 [Example 94, (2E)-3-(3-cyano-1H-indazol-6-yl)-N-(6-methoxy-2,4-dimethylpyridin-3-yl)prop-2-enamide]	7.5	7.4	43 (≈ 14.9 µg/mL)						
Cc1n[nH]c2cc(/C=C/C(=O)N[C@H]3c4ccccc4C[C@@H]3OCC3CC3)ccc12 [Example 67, (E)-N-((1S,2S)-2-(cyclopropylmethoxy)-2,3-dihydro-1H-inden-1-yl)-3-(3-methyl-1H-indazol-6-yl)acrylamide]	7.2	7.3				73.3	42.1		
COc1cc(C)c(NC(=O)/C=C/c2cc3[nH]nc(F)c3cc2F)c(C)n1 [Example 97, (2E)-3-(3,5-difluoro-1H-indazol-6-yl)-N-(6-methoxy-2,4-dimethylpyridin-3-yl)prop-2-enamide]	7.5	7.5	35 (≈ 12.5 µg/mL)						
Cc1ncc(F)c(C)c1NC(=O)/C=C/c1ccc2c(F)n[nH]c2c1 [Example 108, (2E)-3-(3-fluoro-1H-indazol-6-yl)-N-(5-fluoro-2,4-dimethylpyridin-3-yl)prop-2-enamide]	7.8	7.6							
CO[C@H]1Cc2ccccc2[C@@H]1NC(=O)/C=C/c1ccc2c(C3CC3)n[nH]c2c1 [Example 70, (E)-3-(3-cyclopropyl-1H-indazol-6-yl)-N-((1S,2S)-2-methoxy-2,3-dihydro-1H-inden-1-yl)acrylamide]	7.5		18.4 (≈ 6.87 µg/mL)			70.1	24.6	7.5	
CO[C@H]1Cc2ccccc2[C@@H]1NC(=O)/C=C/c1ccc2c(C#N)n[nH]c2c1 [Example 74, (E)-3-(3-cyano-1H-indazol-6-yl)-N-((1S,2S)-2-methoxy-2,3-dihydro-1H-inden-1-yl)acrylamide]	8.0	8.0						7.5	1.2 (≈ 0.43 µg/mL)
Cc1ccc(F)c(C)c1NC(=O)/C=C/c1ccc2c(c1)NC(=O)C2 [Example 20, (E)-N-(3-fluoro-2,6-dimethylphenyl)-3-(2-oxoindolin-6-yl)acrylamide]	6.8		210 (≈ 68.3 µg/mL)			11.9	6.08	-1.76	
COCc1c(F)cnc(C)c1NC(=O)/C=C/c1ccc2c(C)n[nH]c2c1 [Example 117, (2E)-N-[5-fluoro-4-(methoxymethyl)-2-methylpyridin-3-yl]-3-(3-methyl-1H-indazol-6-yl)prop-2-enamide]	6.6	5.9	86 (≈ 30.5 µg/mL)				3		
Cc1n[nH]c2cc(/C=C/C(=O)N[C@H]3c4ccccc4OC[C@@H]3C)ccc12 [Example 65c, (E)-3-(3-methyl-1H-indazol-6-yl)-N-((3R,4R)-3-methylchroman-4-yl)acrylamide]	7.7	7.8							
Cc1ncc(F)c(C)c1NC(=O)/C=C/c1cc2[nH]nc(F)c2cc1F [Example 111, (2E)-3-(3,5-difluoro-1H-indazol-6-yl)-N-(5-fluoro-2,4-dimethylpyridin-3-yl)prop-2-enamide]	8.1	8.1							
